# Data taken from PubChem BioAssay (NCI).
#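 Values below derive from 48-hour exposures of cells grown in 96-well plates, with endpoints linearly interpolated between the two concentrations bracketing the appropriate inhibition level. TGI is the concentration that stops growth completely.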
# How the values were obtained:
# Assay in all cases: NCI-60 cell line screen, 48 h
# CCRF-CEM leukemia = tested on: CCRF-CEM leukemia
# LOX IMVI melanoma = tested on: LOX IMVI melanoma
# DLD-1 colon = tested on: DLD-1 colon
# MALME-3M melanoma = tested on: MALME-3M melanoma
# HCT-15 colon = tested on: HCT-15 colon
# SW-620 colon = tested on: SW-620 colon
# SR leukemia = tested on: SR leukemia
# K-562 leukemia = tested on: K-562 leukemia
# RPMI-8226 leukemia = tested on: RPMI-8226 leukemia
# UO-31 renal = tested on: UO-31 renal
# IGROV1 ovarian = tested on: IGROV1 ovarian
# UACC-62 melanoma = tested on: UACC-62 melanoma
# ACHN renal = tested on: ACHN renal
# U251 CNS = tested on: U251 CNS
# A549 NSCLC = tested on: A549 NSCLC
# SNB-75 CNS = tested on: SNB-75 CNS
# HCC-2998 colon = tested on: HCC-2998 colon
# SN12C renal = tested on: SN12C renal
# OVCAR-3 ovarian = tested on: OVCAR-3 ovarian
# A498 renal = tested on: A498 renal
# M14 melanoma = tested on: M14 melanoma
# SK-MEL-2 melanoma = tested on: SK-MEL-2 melanoma
# TK-10 renal = tested on: TK-10 renal
# NCI-H460 lung = tested on: NCI-H460 lung
# NCI-H522 lung = tested on: NCI-H522 lung
# SF-268 CNS = tested on: SF-268 CNS
# KM20L2 colon = tested on: KM20L2 colon
# SF-539 CNS = tested on: SF-539 CNS
# HOP-62 NSCLC = tested on: HOP-62 NSCLC
# RXF 393 renal = tested on: RXF 393 renal
# SF-295 CNS = tested on: SF-295 CNS
# HOP-18 NSCLC = tested on: HOP-18 NSCLC
# M19-MEL melanoma = tested on: M19-MEL melanoma
# CAKI-1 renal = tested on: CAKI-1 renal
# MOLT-4 leukemia = tested on: MOLT-4 leukemia
# LXFL 529 NSCLC = tested on: LXFL 529 NSCLC
# OVCAR-4 ovarian = tested on: OVCAR-4 ovarian
# KM12 colon = tested on: KM12 colon
# SK-MEL-28 melanoma = tested on: SK-MEL-28 melanoma
# OVCAR-8 ovarian = tested on: OVCAR-8 ovarian
# 786-0 renal = tested on: 786-0 renal
# SK-MEL-5 melanoma = tested on: SK-MEL-5 melanoma
# XF 498 CNS = tested on: XF 498 CNS
# SNB-19 CNS = tested on: SNB-19 CNS
# DMS 273 small cell lung = tested on: DMS 273 small cell lung
# NCI-H226 lung = tested on: NCI-H226 lung
# HT29 colon = tested on: HT29 colon
# UACC-257 melanoma = tested on: UACC-257 melanoma
# DMS 114 small cell lung = tested on: DMS 114 small cell lung
# HCT-116 colon = tested on: HCT-116 colon
# OVCAR-5 ovarian = tested on: OVCAR-5 ovarian
# COLO 205 colon = tested on: COLO 205 colon
# SNB-78 CNS = tested on: SNB-78 CNS
# EKVX NSCLC = tested on: EKVX NSCLC
# NCI-H23 lung = tested on: NCI-H23 lung
# SK-OV-3 ovarian = tested on: SK-OV-3 ovarian
# HL-60(TB) leukemia = tested on: HL-60(TB) leukemia
# HOP-92 NSCLC = tested on: HOP-92 NSCLC
smiles,measurement,setting,value
CCCCCCCCCCCC(=O)OCC1OC(OC)C(NC(=O)N(CCCl)N=O)C(O)C1O (configuration not stated),TGI,CCRF-CEM leukemia,13.8 µM
same,TGI,LOX IMVI melanoma,21.6 µM
same,TGI,DLD-1 colon,52.3 µM
same,TGI,MALME-3M melanoma,30.6 µM
same,TGI,HCT-15 colon,96.1 µM
same,TGI,SW-620 colon,24.5 µM
same,TGI,SR leukemia,18.6 µM
same,TGI,K-562 leukemia,31.1 µM
same,TGI,RPMI-8226 leukemia,29.6 µM
same,TGI,UO-31 renal,33.5 µM
same,TGI,IGROV1 ovarian,> 100 µM
same,TGI,UACC-62 melanoma,15.7 µM
same,TGI,ACHN renal,35.6 µM
same,TGI,U251 CNS,26.1 µM
same,TGI,A549 NSCLC,36.8 µM
same,TGI,SNB-75 CNS,52.8 µM
same,TGI,HCC-2998 colon,33.2 µM
same,TGI,SN12C renal,29.5 µM
same,TGI,OVCAR-3 ovarian,33.4 µM
same,TGI,A498 renal,35.7 µM
same,TGI,M14 melanoma,24.5 µM
same,TGI,SK-MEL-2 melanoma,54.5 µM
same,TGI,TK-10 renal,61 µM
same,TGI,NCI-H460 lung,20.5 µM
same,TGI,NCI-H522 lung,24.7 µM
same,TGI,SF-268 CNS,16.4 µM
same,TGI,KM20L2 colon,36.8 µM
same,TGI,SF-539 CNS,14.8 µM
same,TGI,HOP-62 NSCLC,42.9 µM
same,TGI,RXF 393 renal,26.4 µM
same,TGI,SF-295 CNS,20.8 µM
same,TGI,HOP-18 NSCLC,> 100 µM
same,TGI,M19-MEL melanoma,> 100 µM
same,TGI,CAKI-1 renal,> 100 µM
same,TGI,MOLT-4 leukemia,16.1 µM
same,TGI,LXFL 529 NSCLC,26.4 µM
same,TGI,OVCAR-4 ovarian,37.6 µM
same,TGI,KM12 colon,37.1 µM
same,TGI,SK-MEL-28 melanoma,35.6 µM
same,TGI,OVCAR-8 ovarian,41 µM
same,TGI,786-0 renal,10.4 µM
same,TGI,SK-MEL-5 melanoma,29.9 µM
same,TGI,XF 498 CNS,27.6 µM
same,TGI,SNB-19 CNS,> 100 µM
same,TGI,DMS 273 small cell lung,30.6 µM
same,TGI,NCI-H226 lung,59.3 µM
same,TGI,HT29 colon,31.2 µM
same,TGI,UACC-257 melanoma,27.5 µM
same,TGI,DMS 114 small cell lung,39 µM
same,TGI,HCT-116 colon,29.2 µM
same,TGI,OVCAR-5 ovarian,57.7 µM
same,TGI,COLO 205 colon,59 µM
Cc1c(C(=O)/C=C/c2ccccc2)[n+](=O)c2ccccc2n1[O-],TGI,SNB-78 CNS,> 100 µM
same,TGI,CCRF-CEM leukemia,74.7 µM
same,TGI,LOX IMVI melanoma,28.3 µM
same,TGI,DLD-1 colon,27.5 µM
same,TGI,MALME-3M melanoma,33.6 µM
same,TGI,SW-620 colon,28.3 µM
same,TGI,SR leukemia,66 µM
same,TGI,K-562 leukemia,51.9 µM
same,TGI,RPMI-8226 leukemia,45.9 µM
same,TGI,UO-31 renal,34.2 µM
same,TGI,IGROV1 ovarian,45.2 µM
same,TGI,UACC-62 melanoma,28.6 µM
same,TGI,ACHN renal,33.6 µM
same,TGI,EKVX NSCLC,29.5 µM
same,TGI,U251 CNS,29.7 µM
same,TGI,A549 NSCLC,43.2 µM
same,TGI,SNB-75 CNS,64.7 µM
same,TGI,HCC-2998 colon,30.2 µM
same,TGI,SN12C renal,33.6 µM
same,TGI,OVCAR-3 ovarian,30.6 µM
same,TGI,A498 renal,31.3 µM
same,TGI,M14 melanoma,29.1 µM
same,TGI,TK-10 renal,51.1 µM
same,TGI,NCI-H460 lung,35.6 µM
same,TGI,NCI-H522 lung,19.4 µM
same,TGI,SF-268 CNS,40.1 µM
same,TGI,NCI-H23 lung,29.5 µM
same,TGI,KM20L2 colon,35.5 µM
same,TGI,SK-OV-3 ovarian,42.7 µM
same,TGI,SF-539 CNS,29.7 µM
same,TGI,HOP-62 NSCLC,37.9 µM
same,TGI,RXF 393 renal,20.9 µM
same,TGI,SF-295 CNS,31.5 µM
same,TGI,HOP-18 NSCLC,57 µM
same,TGI,M19-MEL melanoma,30 µM
same,TGI,CAKI-1 renal,45.7 µM
same,TGI,MOLT-4 leukemia,54.6 µM
same,TGI,LXFL 529 NSCLC,26 µM
same,TGI,OVCAR-4 ovarian,33 µM
same,TGI,HL-60(TB) leukemia,40.7 µM
same,TGI,KM12 colon,29.9 µM
same,TGI,SK-MEL-28 melanoma,31 µM
same,TGI,OVCAR-8 ovarian,28.7 µM
same,TGI,786-0 renal,32 µM
same,TGI,XF 498 CNS,24.6 µM
same,TGI,SNB-19 CNS,31.8 µM
same,TGI,DMS 273 small cell lung,30.1 µM
same,TGI,NCI-H226 lung,39.2 µM
same,TGI,HT29 colon,35.7 µM
same,TGI,HOP-92 NSCLC,28 µM
same,TGI,UACC-257 melanoma,31.3 µM
same,TGI,DMS 114 small cell lung,22.2 µM
same,TGI,HCT-116 colon,32.4 µM
same,TGI,OVCAR-5 ovarian,30.7 µM
same,TGI,COLO 205 colon,29.8 µM
